Tests used:
[1] = tested on: enzymatically isolated leaf cuticles of the top face of pear leaves; experiment: Desorption test: influence of additives on tracer mobility in the cuticle (penetration enhancer / plasticizer effect)
Text: Additives which act as penetration enhancers at the level of the cuticle may be referred to below as accelerator additives (cf. Schönherr and Baur, 1994, Pesticide Science 42, 185-208). The feature of accelerator additives is their ability to penetrate from the aqueous spray liquor and/or from the spray covering into the cuticle and thereby to increase the mobility of the active compounds in the cuticle. Other additives such as polyethylene glycol, in contrast, only act on the spray covering (via the liquid phase) or act only as wetting agents, such as, for example, sodium dodecylsulphate.
This test determines the influence of additives on the penetration properties of other substances at the level of the cuticle. The mobility of a test substance in the cuticle is measured with and without an additive, by way of a desorption method. The method is published in detail in the literature (Baur et al., 1997, Pesticide Science, 51, 131-152) and only the principles and any deviations are described below.
As a test substance with the function of a tracer a selection was made here of a radiolabelled weak organic acid. Plant material used comprises the enzymatically isolated leaf cuticles of the top face of pear leaves from outdoor trees. […] This inner side readily takes up the small radioactive amount of the tracer in the undissociated acid form. […]

[2] = tested on: primary leaves of barley seedlings; experiment: Retention test of spray liquor on poorly wettable leaf
Protocol: Retention is to be understood as meaning the adherence of spray mists to surfaces, for example plants or plant parts (leaves), after spray application. The retention depends both on the composition of the spray liquor and on the nature of the treated surface. The retention of a spray liquor (aqueous solution of the stated additive) was determined using a poorly wettable leaf in comparison to a reference surface with complete retention. The reported results were obtained using primary leaves of barley seedlings which had been cultivated in a greenhouse (18° C., 80% atmospheric humidity, 16 h of light). Individual cut leaves were subjected to standard treatment in a spray cabin using a track sprayer-flat-jet nozzle: XR 11002 VS; pressure: 3 bar; […]. Weight and leaf area were determined prior to the treatment, and the adhering spray coating was correspondingly determined gravimetrically and normalized to leaf area. A nonwoven-fabric paper cloth serves as reference surface for 100% retention. Per spray liquor variant, at least 5 individual leaves were treated, and the calculated retentions were then averaged. A test series where pure tap water as spray liquor was sprayed onto the barley seedling leaves was carried out as negative control (lowest retention).

## CCCCC(CC)COC(=O)C(C)O (centres unmarked) [2-Ethylhexyl lactate]
[1]; Table 1
  Effectiveness as cuticle plasticizer (in words): very effective as a plasticizer
[1]; additive concentration 1 g/l, radiolabelled weak organic acid tracer
  Mean effect (ratio of desorption slopes with additive to without additive): 45
[2]; 0.3 g/l
  Effect on retention (in words): increased the retention considerably
[2]; additive 0.3 g/l in water, 100% = nonwoven-fabric paper cloth
  Retention: 60.6%
[2]; additive 3 g/l + 0.2 g/l Pluronic PE 10500 emulsifier
  Retention: 61%

Source: US20080318791A1, “Use of Lactate Esters for Improving the Action of Agricultural Pesticides” (Bayer Cropscience Aktiengesellschaft, priority 2005, published 2008)
